These results are taken from US20200200735A9, “SYSTEM AND METHOD FOR DETECTING THERAPEUTIC AGENTS TO MONITOR ADHERENCE TO A TREATMENT REGIMEN” (UrSure, Inc., priority 2016, published 2020).

The conditions of data set [1]: in vivo; cited from earlier work.
The nature of data set [2]: Cohort 2: single dose of Truvada in healthy subjects, TFV clearance in plasma and urine over 7 days (LC-MS/MS). The data set is classed as in vivo, human. The procedure: (§1) 3 cohort studies were conducted to assess a system for detection of the active metabolite tenofovir (TFV) of the prodrug nucleotide reverse transcriptase inhibitor (NRTI) tenofovir disoproxil fumarate (TDF). Cohort 1: a cross sectional study of 10 HIV positive subjects with undetectable HIV viral loads on a TDF-based regimen; Cohort 2: a single dose study of Truvada in 10 healthy subjects to evaluate TFV clearance in plasma and urine over 7 days; Cohort 3: a 16 week study of 10 HIV negative subjects receiving daily PrEP to evaluate concordance between plasma and urine over time.
A semi-quantitative liquid chromatography-tandem mass spectrometry (LC-MS/MS) urine assay was developed for detection of TFV with high sensitivity/specificity. […] To evaluate the qualitative relationship of urine TFV levels to plasma levels, the levels of TFV in the urine and plasma from Cohort 1 was evaluated. […] In addition, the TFV concentration was 3-4 logs higher in urine than plasma (FIG. 2). In cohort 2, TFV was detected for >7 days in urine and 2-4 days in plasma after a single dose of Truvada™ (FIG. 3). […] The urine assay was 2 logs more sensitive than serum over 7 days (FIG. 3).
A semi-quantitative liquid chromatography-tandem mass spectrometry (LC-MS/MS) urine assay with high sensitivity and specificity for TFV allowed us to determine TFV concentrations in log categories between <[…] to >10,000 ng/mL. Following protein precipitation (0.1 mL human plasma or urine or diluted urine sample) using 100% acetonitrile with 0.1% formic acid, containing deuterated internal standard (2H6-tenofovir, 50 ng/mL), the analytes were separated using gradient mobile phase on a reverse phase C18 column and analyzed by MS/MS (AB Sciex API4000). The multiple reaction monitoring of m/z 288.3 to 176.3 for tenofovir and m/z 294.3 to 182.2 for 2H6-tenofovir was used for analysis. […] Flow rate was 0.7 ml/min and total chromatographic run-time was 3.0 minutes/sample.
Standards (10, 100, 1000 and 10,000 ng/mL in human plasma), blanks (double blank and internal standard blank) and unknown plasma and urine samples were thawed to room temperature. One hundred μL of all standards and blanks were put into appropriate wells on a 96 well plate. Diluted unknown urine samples (95 μL blank plasma +5 μL of unknown urine samples, 20-fold dilution) or undiluted plasma samples were mixed with 400 μL of IS solution in a 96 well plate. The plate was vortexed for 30 seconds at high speed and centrifuged for 30 minutes at 4000 rpm. Supernatant was transferred to a fresh 96 well plate and a 10 μL aliquot was injected for LC-MS/MS analysis from autosampler. […] When the concentration of TFV in urine samples exceeded 1,000 ng/mL, samples were diluted 50-fold with blank urine and reanalyzed.

The conditions of data set [3]: in vivo; cited from earlier work. The source holds these as a separate data set.
For the next data set, the system named is HIV-1. Particulars: cited from earlier work.
The nature of data set [4]: Cohort 3: 16 week study of HIV negative subjects on daily PrEP, TFV in plasma and urine (LC-MS/MS). The format is in vivo, human. The settings on record: Cohort 3, daily PrEP. The procedure: as §1
(§2) A semi-quantitative liquid chromatography-tandem mass spectrometry (LC-MS/MS) urine assay was developed for detection of TFV with high sensitivity/specificity. […] To evaluate the qualitative relationship of urine TFV levels to plasma levels, the levels of TFV in the urine and plasma from Cohort 1 was evaluated. […] In addition, the TFV concentration was 3-4 logs higher in urine than plasma (FIG. 2). In cohort 2, TFV was detected for >7 days in urine and 2-4 days in plasma after a single dose of Truvada™ (FIG. 3). […]
(§3) A semi-quantitative liquid chromatography-tandem mass spectrometry (LC-MS/MS) urine assay with high sensitivity and specificity for TFV allowed us to determine TFV concentrations in log categories between <10 ng/L to >10,000 ng/mL. […]

The conditions of data set [5]: human, in vivo. The procedure: as §1, §2, §3
The test system of the next data set is HIV. The settings on record: Anderson 2012; cited from earlier work.

Where two headings read alike, the source gives them in different places.

As to `C[C@H](Cn1cnc2c(N)ncnc21)OCP(=O)(O)O` [TFV, Tenofovir], in data set [1], the intracellular half-life was 150 h and the plasma half-life was 17 h. Besides, in data set [2] (after a single dose of Truvada), the “time TFV detected in plasma” value was 2 to 4 days and the “time TFV detected in urine” value is given as > 7 days. Moreover, the “urine TFV clearance pattern” value in data set [2] (after a single dose of Truvada, over 7 days) was “cleared in a log-linear fashion”. Further, the “window of medication usage reflected by TFV detection in urine” value in data set [2] (after oral TDF/FTC ingestion, preliminary data) is on record as “one to at least seven days”. Also, the “window of exposure reflected by single plasma concentrations” value in data set [3] was 2 to 3 days. Further, the “HIV-1 risk reduction corresponding to intracellular tenofovir concentration” value (shortened to “HIV-1 risk reduction corresponding”) in the data set with HIV-1 (2 doses per week) is given as 76%. For the same compound, the “HIV-1 risk reduction corresponding” value with HIV-1 (4 doses per week) is recorded as 96%. The “HIV-1 risk reduction corresponding” value with HIV-1 (7 doses per week) was 99%. Also, in data set [4], the “plasma samples with TFV detected” value is 74% and the “urine samples with TFV detected” value stood at 93%. Further, the “TFV concentration higher in urine than plasma” value in data set [5] is recorded as 3-4 logs.

In the case of `CC(Cn1cnc2c(N)ncnc21)OCP(=O)(O)OP(=O)(O)OP(=O)(O)O` (stereo in doubt) [tenofovir-diphosphate], the “intracellular concentration associated with a 90% reduction in HIV acquisition relative to the placebo arm” value in the data set with HIV is given as 16 fmol per million peripheral blood mononuclear cells (PBMCs).
